Measured values published in patent US5223517A, “Heterocyclically substituted cycloalkano[b]-indolesulphonamides” (Bayer Aktiengesellschaft, priority 1990, dated 1993).
Where a name gives a salt, the structure may show the parent alone.

How the values were obtained:
[1] = system: platelet aggregation (platelet-rich citrate plasma, collagen); assay: platelet aggregation-inhibiting action (TAI), collagen-induced, platelet-rich plasma, turbidometric method; assay type: cell-based; details: Homo sapiens, 0.1 h, range of the minimum effective concentration, PRP, 37° C., result after 6 minutes, read-out: TAI threshold concentration
From the text: Blood from healthy subjects of both sexes was used for the determination of the platelet aggregation-inhibiting action. As an anticoagulant, one part of 3.8% strength aqueous sodium citrate solution was admixed to 9 parts of blood. Platelet-rich citrate plasma (PRP)^1 is obtained from this blood by means of centrifugation (Jurgens/Beller, Klinische Methoden der Blutgerinnungsanalyse (Clinical Methods of Blood Coagulation Analysis); Thieme Verlag, Stuttgart, 1959).
For these investigations, 0.8 ml of PRP and 0.1 ml of the active compound solution were preincubated in a water bath at 37° C. The platelet aggregation was then determined by the turbidometric method (Born, G. V. R., J. Physiol. (London), 162, 67, 1962) in an aggregometer at 37° C. (Therapeutische Berichte 47, 80-86, 1975). To this end, 0.1 ml of collagen, an aggregation-inducing agent, was added to the preincubated sample. The change in the optical density in the sample of PRP^1 was recorded during a period of 6 minutes and the results was determined after 6 minutes. To do this, the percentage inhibition is calculated compared to the control.
The range of the minimum effective concentration is given as the threshold concentration.

thromboxane synthase = target: T1, thromboxane synthase (Homo sapiens, UniProt P24557); assay: Measurement of the thromboxane synthase in washed human platelets; assay type: cell-based; details: 3H-arachidonic acid, 37° C., 10 min, read-out: IC50 (50% inhibition of thromboxane formation compared to the control)
T1 construct: 1 ml of the platelet suspension and 0.01 ml of the test preparation in 10% DMSO are incubated at 37° C. for 2 min; endogenous in cells; host or cells: washed human platelets from blood of healthy donors
T1 sequence (P24557 1-533): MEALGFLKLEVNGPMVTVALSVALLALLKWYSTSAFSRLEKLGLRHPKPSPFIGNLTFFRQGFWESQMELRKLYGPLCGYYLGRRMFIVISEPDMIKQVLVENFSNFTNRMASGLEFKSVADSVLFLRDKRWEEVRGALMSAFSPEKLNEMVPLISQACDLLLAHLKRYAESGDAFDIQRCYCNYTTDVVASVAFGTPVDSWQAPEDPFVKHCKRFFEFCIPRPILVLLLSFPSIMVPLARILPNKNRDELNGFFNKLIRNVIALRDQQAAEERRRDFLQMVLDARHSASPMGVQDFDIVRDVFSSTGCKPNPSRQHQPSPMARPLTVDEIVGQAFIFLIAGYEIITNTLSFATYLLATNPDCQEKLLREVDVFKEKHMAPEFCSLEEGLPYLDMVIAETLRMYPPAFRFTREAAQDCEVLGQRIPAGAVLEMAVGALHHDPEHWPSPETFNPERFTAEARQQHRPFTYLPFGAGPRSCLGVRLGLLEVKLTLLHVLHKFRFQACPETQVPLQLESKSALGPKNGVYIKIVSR

Compound	minimal effective concentration [1]	IC50 (thromboxane synthase)
O=C(O)CCn1c2c(c3cc(OCc4ccccn4)ccc31)CC(N(Cc1ccccn1)S(=O)(=O)c1ccc(F)cc1)CC2 (stereo not shown) [Example 25]	0.03 to 0.1 µg/mL	–
O=C(O)CCn1c2c(c3c(Cc4cccnc4)cccc31)CC(NS(=O)(=O)c1ccc(F)cc1)CC2 (stereo not shown) [Example 18]	0.3 to 1 µg/mL	–
O=C(O)CCn1c2c(c3cc(Cc4cccnc4)ccc31)CC(NS(=O)(=O)c1ccc(F)cc1)CC2 (stereo not shown) [Example 11, 9-(2-Carboxyethyl)-3-(4-fluorophenylsulphonamido)-6-(3-pyridyl-methyl)-1,2,3,4-tetrahydro-carbazole hydrochloride]	–	200 nM
O=C(O)CCn1c2c(c3ccc(-c4cccnc4)cc31)CC(NS(=O)(=O)c1ccc(F)cc1)CC2 (stereo not shown) [Example 24]	–	100 nM
O=C(O)CCn1c2c(c3cc(C(=O)CCc4cccnc4)ccc31)CC(NS(=O)(=O)c1ccc(F)cc1)CC2 (stereo not shown) [Example 20]	0.03 to 0.1 µg/mL	–
O=C(O)CCn1c2c(c3cc(CCc4cccnc4)ccc31)CC(NS(=O)(=O)c1ccc(F)cc1)CC2 (stereo not shown) [Example 17]	0.03 to 0.1 µg/mL	1000 nM
